Assay: solubility of FDCA in water at different temperatures (FIG. 1)
Format: physicochemical
Settings: ambient pressure, as the water temperature increases beyond 130° C. (FIG. 1)
Procedure: FIG. 1 depicts the solubility of FDCA in water at different temperatures.
Suitable dissolution temperatures are those effective to dissolve the desired amount of FDCA solids into solution. The hydrogenation solvent composition may be added at (by pre-heating) or heated in the dissolution zone to a temperature of at least 120° C. under a pressure and time sufficient to allow for at least 80 wt. % dissolution, although to reduce the time required for dissolution, it is desirable that the hydrogenation solvent composition temperature is at least 130° C., or at least 135° C., or at least 140° C., or at least 150° C.

O=C(O)c1ccc(C(=O)O)o1 [FDCA, Furan 2,5-dicarboxylic acid]
solubility of FDCA in water: increases dramatically
